Laboratory results: patent US9433663B2, “Mobilization of hematopoietic stem cells” (Children's Hospital Medical Center, priority 2008, dated 2016)

Experiments:
Cdc42 = Cdc42 (Homo sapiens, UniProt P60953); test: Rho GTPase effector pulldown in human CD34+ umbilical cord blood cells, Cdc42; type: cell-based; design: endogenous in cells; host or cells: human CD34+ umbilical cord blood cells (HCB); details: human CD34^+ HCBs
Experimental: To begin to study potential utility of CASIN in human hematopoietic stem cell mobilization, a series of cellular assays were carried out to determine the effects on human CD34^+ umbilical cord blood cells (HCBs). […] The effects of CASIN on human hematopoietic cell mobilization was therefore tested using a well established preclinical in vivo model (NOD/SCID-Hcb) of human hematopoietic function, where fresh CD34^+ hCB cells were transplanted into sub-lethally irradiated NOD/SCIDs by intrafemoral injection, and repopulated and maintained human hematopoietic reconstitution in the bone marrow of NOD/SCID recipient mice (FIG. 9b, FIG. 11) (Larochelle, A. et al. Nat Med 2, 1329-1337 (1996); Bhatia, M., et al. Proc Natl Acad Sci USA 94, 5320-5325 (1997)). Intravenous injections of CASIN were applied when human cells were well engrafted in the NOD/SCID recipients.
To analyze the effects of CASIN on the formation of active GTP-bound Cdc42, RhoA, and Rac1, effector pulldown assays were carried out as described previously. Cdc42GAP^−/− MEF, LDBM, CD34^+ hCB cells were treated with CASIN at doses of 5-20 μM in parallel with vehicle control for 2 hrs after overnight starvation, and stimulated with cytokines subsequently. […]

[1] = system: progenitor cells in spleen and liver; test: CFU-C assays of spleen and liver after treatment; type: in vivo, mice; details: after CASIN injection
Rac = Rac (Homo sapiens, UniProt P63000); test: nucleotide exchange: Tiam-induced exchange of mant-GDP with Rac; type: biochemical
Excerpt: For example, even at 10 times the IC50 of Cdc42, a 50% inhibition of the association of mant-GDP with Rac or Rho was not achieved.

32D myeloid progenitors = test: transwell migration of 32D progenitors towards SDF1α; type: cell-based, murine; details: dose-dependent manner
Excerpt: To shed light on potential roles of CASIN in HSPC mobilization, the effects of CASIN on Cdc42-related cellular functions was studied, including adhesion, migration, and F-actin polymerization of progenitor cells in 32D myeloid progenitors. […] SDF-1α stimulation causes a reorganization of F-actin into a cortical ring around the cells. […] Thirdly, to gain further insight into cellular specificity and efficacy of CASIN, and also to rule out possible toxic effects by CASIN, Cdc42-involved BM progenitor cell functions were examined, including proliferation, adhesion, migration, and F-actin polymerization, in Cdc42^+/+ cells in parallel with Cdc42^−/− cells. In line with additional studies in a Cdc42 conditional knockout mouse model as described herein, Cdc42^−/− LDBM cells have increased CFU-forming progenitors compared to those of Cdc42^+/+.

Sequence of Cdc42 (P60953 whole entry): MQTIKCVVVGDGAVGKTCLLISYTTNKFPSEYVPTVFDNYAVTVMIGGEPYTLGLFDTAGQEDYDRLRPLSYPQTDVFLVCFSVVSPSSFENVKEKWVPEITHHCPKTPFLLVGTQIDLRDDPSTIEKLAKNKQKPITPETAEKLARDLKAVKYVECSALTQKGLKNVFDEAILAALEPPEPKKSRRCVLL

Structure (SMILES): OCCNC1CCCc2c1[nH]c1ccc(-c3ccccc3)cc21 (centres unmarked) [CASIN]
- Cdc42 activity (Cdc42): specifically inhibit
- progenitor cells found in spleen and liver [1]: increased level
- Tiam induced nucleotide exchange of mant-GDP with Rac (Rac; FIG. 6): did not affect
- inhibition of the association of mant-GDP with Rac (Rac; at 10 times the IC50 of Cdc42): < 50%
- migration of 32D progenitor cells towards SDF1α gradient (32D myeloid progenitors): significantly reduced migration
